Results: paper PMC6669887 (Analytical chemistry, 2019)

Tested on: A2AR
Assay: Affinity MS assay/screen with purified immobilized receptor
Assay type: binding
Details: 480-mix cocktails

hit detection/selection in 480-mix screens: detected in all cocktails
Structure (SMILES): CCNC(=O)[C@H]1O[C@@H](n2cnc3c(NCC(c4ccccc4)c4ccccc4)nc(C(=O)NCCNC(=O)NC4CCN(c5ccccn5)CC4)nc32)[C@H](O)[C@@H]1O [UK-432,097]
